Data published in patent US20240208984A1, “BIVALENT LIGANDS TO UNDERSTAND DIMERIZATION OF THE MU OPIOID RECEPTOR AND THE CHEMOKINE RECEPTOR CCR5 IN NEUROLOGICAL DISORDERS” (priority 2021, published 2024).

Key:
[1] = tested on: HIV-1BaL Env-pseudotyped Luc-expressing virus; test: HIV-1-Luc infection assay in PBMCs; assay type: cell-based; conditions: non-stimulated PBMCs; 1000 nM
Source text: (§1) Peripheral blood mononuclear cells (PBMCs) include large numbers of CCR5-expressing leukocytes and are susceptible to infection by R5-tropic HIV-1 strains.
Isolated human PBMCs were obtained commercially from the New York Blood Bank and exempt from Human Subjects criteria (NIH Exemption 4: website located at nih.gov/sites/default/files/exemption_infographic_v7_508c-3-21-19.pdf). The adult PBMCs are publicly available and no information or identifiers are provided so subjects cannot be identified. […] After 3 days in culture, supernatants were harvested, floating cells removed by centrifugation, HIV-1 p24 Ag measured by commercial ELISA (Zeptometrix), and viral aliquots stored at −80° C. […]
PBMCs were isolated from buffy coats of healthy blood donors by centrifugation in Ficoll gradient (MP Biomedicals). Viable cells, determined by Trypan blue exclusion, were stimulated, or not, for 2 days with 5 μg/mL PHA (Sigma). […]
After 2 days of infection, 100 μL of 2× Luciferase Substrate containing lysing buffer (BRIGHT-GLO™ Luciferase Assay System, Promega) were added per well, plate was agitated for 2 mins (700 rpm) and Luminescence was evaluated using a PHERASTAR® FS plate reader (BMG Labtech).

HIV-1BaL [2] = test: HIV-1BaL infection assay in MOR-CCR5 co-expressed TZM-b1 cells; assay type: cell-based; conditions: read-out: Inhibition of HIV-1BaL infection EC50
Protocol: CCR5-expressing TZM-b1 cells co-express an HIV-1 long-terminal repeat (LTR)-firefly luciferase reporter that can be activated by Tat (trans-activator of transcription) in cells expressing HIV. […] To initially determine whether the co-expression of MOR affected HIV-1 entry/expression, OPRM1- or control plasmid-transfected TZM-b1 cells were exposed to varying concentrations of HIV-1BaL and HIV-1 entry was calculated based on LTR-driven luciferase activity.
HIV-1BaL.01 was kindly donated and expanded in Phytohemagglutinin (PHA)-activated Peripheral Blood Mononuclear Cells (PBMCs). The amount of viral particles was determined by commercial ELISA for p24 capsid antigen (Zeptometrix) and aliquots were stored at −80° C. The TZM-b1, a cell line contained integrated copies of luciferase under control of the HIV-1 long-terminal repeat (LTR), were kindly donated.
Cells were transfected with plasmid containing GFP-tagged human opioid receptor mu 1 gene (OPRM1; Origene) or with the original empty vector also containing GFP (control plasmid; Origene) and selected for 2 weeks with 2 mg/ml G418 (Invivogen) in DMEM (Hyclone) supplemented with 1×MEM Non-essential amino acids (Gibco), 10% heat-inactivated FBS (Hyclone) and 100 U Penicillin-0.1 mg/ml Streptomycin (Sigma). Then, GFP+ cells were sorted out twice by flow cytometry (BDFACSAria model, Becton-Dickinson) and maintained in the conditions mentioned above with 800 μg/ml G418. For the infection, cells were detached from 25 cm2 flasks with 0.25% Trypsin (Sigma), washed by centrifugation (400 g—10 mins) and viable cells determined by Trypan blue (Sigma) exclusion. […] Luciferase activity was evaluated following the addition of 100 μL/well of 2× luciferase substrate containing lysis buffer (BRIGHT-GLO™ Luciferase Substrate, Promega) after 2-3 days of infection.
Luminescence, reported as relative luminescence units (RLU), was evaluated in PHERASTAR® FS plate reader and results expressed as percentage of inhibition relative to vehicle-treated, infected cells (100% infection).

mouse MOR = mouse MOR (Mus musculus (Mouse), UniProt P42866); test: In vitro MOR radioligand binding assay; conditions: [3H]naloxone radioligand; mMOR-CHO; mean ± SEM; read-out: MOR Radioligand Binding Affinity Ki
mouse MOR, sequence (P42866 whole entry, looked up): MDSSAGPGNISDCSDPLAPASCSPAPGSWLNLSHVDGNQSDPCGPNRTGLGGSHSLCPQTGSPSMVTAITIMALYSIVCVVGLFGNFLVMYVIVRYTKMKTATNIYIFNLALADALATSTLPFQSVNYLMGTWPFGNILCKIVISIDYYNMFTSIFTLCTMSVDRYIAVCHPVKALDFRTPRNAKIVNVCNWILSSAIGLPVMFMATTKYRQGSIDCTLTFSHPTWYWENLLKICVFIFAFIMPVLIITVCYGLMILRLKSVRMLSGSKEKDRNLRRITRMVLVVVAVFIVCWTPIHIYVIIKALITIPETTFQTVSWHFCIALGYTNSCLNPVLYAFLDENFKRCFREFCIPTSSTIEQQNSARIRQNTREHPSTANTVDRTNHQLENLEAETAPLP
Protocol: In vitro MOR radioligand binding studies. All bivalent ligands were first tested for their binding affinity to the MOR. The competitive radioligand binding assay was conducted using monoclonal mouse MOR expressed in CHO cell lines (mMOR-CHO).
In vitro MOR radioligand binding assay The competition binding assay was conducted using monoclonal mouse MOR expressed in Chinese hamster ovary (CHO) cell lines. In this assay, 30 μg of membrane protein was incubated with the radioligand [^3H] naloxone in the presence of different concentrations of tested compounds in TME buffer (50 mM Tris, 3 mM MgCl2, and 0.2 mM EGTA, pH 7.4) for 1.5 h at 30° C. The bound radioligand was separated by filtration using a Brandel harvester. […] The IC50 values were determined and converted to Ki values using the Cheng-Prusoff equation: Ki=IC50/[1+([L*]/KD)], where [L*] is the concentration of the radioligand and KD is the KD of the radioligand was determined.73

[3] = biological target: Rhesus macaque chemokine CCR5 receptors (Macaca mulatta (Rhesus macaque), UniProt P61813); test: In vitro CCR5 radioligand binding assay; conditions: [125I]MIP-1α radioligand; Chem-1 cells; Cheng-Prusoff; mean ± SEM; read-out: CCR5 Radioligand Binding Affinity Ki
Protocol: In vitro CCR5 radioligand binding studies. To verify the binding affinity of the bivalent ligands to the CCR5, the competitive radioligand binding assay was conducted in recombinant rhesus macaque CCR5-expressing Chem-1 cells, and macrophage inflammatory protein 1 beta (MIP-1β) was used as a control.
The CCR5 competitive radioligand binding assay was conducted following previously reported studies.74, 75 Rhesus macaque chemokine CCR5 receptors expressed in Chem-1 cells are assayed in modified HEPES buffer (50 mM HEPES, 1 mM CaCl2, 5 mM MgCl2, 0.2% BSA, pH 7.4). 3 μg of membrane protein was incubated with 0.10 nM [^125I]MIP-1α in the presence of six concentrations of tested compounds (10 μM, 1 μM, 0.1 μM, 10 nM, 1 nM, and 0.1 nM) for 90 min at 25° C. Non-specific binding is estimated in the presence of 0.1 μM MIP-1β.

HIV-1BaL [4] = test: Anti-HIV-1BaL activity (reverse transcriptase activity) in GHOST CCR5 cells; conditions: read-out: Inhibition of HIV-1BaL EC50, RT activity, triplicate
Protocol: This assay was run in GHOST-CCR5 cells using the CCR5-tropic viral strain HIV-1BaL.
100 μL of GHOST CCR5 cells at a density of 1×10^4 cells/well in 10% complete DMEM (10% FBS with 1% L-glutamine and 1% Penicillin/Streptomycin) media were plated in a 96-well flat bottom plate and incubated for 24 h at 37° C./5% CO2. Following the incubation, 100 μL of each compound at 6 concentrations were added in triplicate to both efficacy and toxicity plates followed by 100 μL of HIV-1BaL at a pre-determined titer to the plates being evaluated for efficacy and 50 μL of complete DMEM to the plates being evaluated for cytotoxicity. The cultures were incubated for 6 days at 37° C./5% CO2. Following the incubation, 50 μL of cell culture supernatant was removed from the wells of the efficacy plates for subsequent evaluation of virus content by reverse transcriptase activity assay. The toxicity plates being evaluated for cytotoxicity were stained with XTT.
RT activity (EC50 values) was measured using standard radioactivity incorporation polymerization assay. 1 μL of titrated thymidine triphosphate (TTP) at 1 Ci/mL was used per enzyme reaction. Poly rA and oligo dT were prepared at concentrations of 0.5 mg/mL and 1.7 Units/mL, respectively, from a stock solution which was kept at −20° C. The RT reaction buffer was prepared fresh and consists of 125 μL of 1M EGTA, 125 μL of dH2O, 125 μL of 20% Triton X-100, 50 μL of 1M Tris (pH 7.4), 50 μL of 1M DTT, and 40 μL of 1 M MgCl2. For each reaction, 1 μL of TTP, 4 μL of dH2O, 2.5 μL of rAdT and 2.5 μL of reaction buffer were mixed. 10 μL of this reaction mixture was placed in a round bottom microtiter plate with 15 μL of virus containing supernatant. The plate was incubated at 37° C. in a humidified incubator for 60-90 min. […] The dried filtermat was placed in a plastic sleeve and 4 mL of Opti-Fluor O (Perkin Elmer, catalog #1205-440) scintillation fluid was added to each sleeve. […] TC50 values for the tested compounds were derived by measuring the reduction of the tetrazolium dye XTT (2,3-bis(2-methoxy-4-nitro-5-sulfophenyl)-5-[(phenylamino)carbonyl]-2H-tetrazolium hydroxide). XTT in metabolically active cells is metabolized by the mitochondrial enzyme NADPH oxidase to a soluble formazan product. XTT solution was prepared as a stock of 1 mg/mL in RPMI-1640 without additives. Phenazine methosulfate (PMS) solution was prepared at 0.15 mg/mL in DPBS and stored in the dark at −20° C. XTT/PMS stock was prepared immediately before use by adding 40 μL of PMS per mL of XTT solution. […] The plates were sealed and inverted several times to mix the soluble formazan product and the plate was read at 450 nm (650 nm reference wavelength) with a Molecular Devices SPECTRAMAX® Plus 384 96 well format spectrophotometer.

[5] = tested on: HIV-1BaL Env-pseudotyped Luc-expressing virus; test: HIV-1 infection assay in PHA-stimulated PBMC cells; assay type: cell-based; conditions: PHA-stimulated PBMCs, 100 nM
Protocol: as §1
In a 24-well plate, PHA-stimulated PBMC cells from healthy donors were infected by incubation with the HIV-1BaL.01 env-pseudotyped Luc virus. A concentration of HIV-1 p24 50 pg/106 cells was used, and uninfected cells served as a negative control. […] After approximately 18-20 h, the supernatant was removed and stored at −80° C., cells were rinsed twice with PBS and lysed. The lysate was subsequently tested for the relative Tat protein expression by using a luciferase assay system (Promega). Luciferase activity was measured using a PHERASTAR® FS plate reader (BMG Labtech).

mouse mu opioid receptor = mouse mu opioid receptor (Mus musculus (Mouse), UniProt P42866); test: Calcium mobilization assay in mMOR-CHO cells; assay type: cell-based
mouse mu opioid receptor, sequence (P42866 whole entry, looked up): as the sequence (P42866 whole entry, looked up) above
Protocol: Calcium mobilization assay results in mMOR-CHO cells. The pharmacological profiles of the three newly prepared MOR bivalent ligands were further characterized for their effects on MOR-dependent intracellular Ca^2+ signaling in an mMOR-CHO cell line that was transfected with chimeric Gqi5 protein as previously described.
A CHO cell line stably expressing the mouse mu opioid receptor (mMOR-CHO) was used for this assay. The cells were transfected with Gαqi5 for 4 h and then plated (10,000 cells/well) to black 96-well plates with clear bottoms (Greiner Bio-One). After 24 h of incubation, the culture medium was removed, and the cells were washed with assay buffer (50 mL of HBSS, 1 mL of HEPES, 250 μL of probenecid, 50 μL of 1 mM CaCl2, and 50 μL of 1 mM MgCl2). The tested compounds were dissolved in DMSO as a stock solution for the assay (1 M). For agonist assays, cells were then incubated with 50 μL/well loading buffer (6 mL of assay buffer, 24 μL of Fluo4-AM solution (Invitrogen), and 12 μL of probenecid solution) for 60 min. Following incubation, different concentrations of the tested compounds were added by a FlexStation3 microplate reader (Molecular Devices) and read at ex494/em516. Each concentration was run in triplicate. For antagonism studies, the cells were incubated with the same loading buffer as the agonist assay for 60 min. Then, different concentrations of the tested compounds (20 μL/well) were manually added to each well followed by another 15 min of incubation. […] Each concentration was run in triplicate. The corresponding IC50 value of each compound was calculated by non-linear regression using GraphPad Prism 8.0.1 (GraphPad Software, San Diego, CA).

Compound: CC(C)c1nnc(CCNC(=O)COCC(=O)NCCCCCCCNC(=O)COCC(=O)NC2CC[C@@]3(O)[C@H]4Cc5ccc(O)c6c5[C@@]3(CCN4CC3CC3)[C@H]2O6)n1C1CC2CCC(C1)N2CC[C@H](NC(=O)C1CCC(F)(F)CC1)c1ccccc1 (stereo partly drawn) [VZMC013]
- Inhibition of HIV-1-Luc infectivity [1]: nearly complete blockade
- EC50 (HIV-1BaL [2]; OPRM1 transfected TZM-b1 cells, morphine 100 μM added): 247 nM
- EC50 (HIV-1BaL [2]; OPRM1 transfected TZM-b1 cells, without morphine): 368 nM
- EC50 (HIV-1BaL [2]; control plasmid transfected TZM-b1 cells): 610 nM
- Ki (mouse MOR): 6.05 nM
- Ki [3]: 3.29 nM
- EC50 (HIV-1BaL [4]): 93 nM
- decrease in HIV expression ([5]; co-exposed to DAMGO 10 nM): 69%
- decrease in HIV expression ([5]; co-exposed to morphine 10 nM): 55%
- reduction in luminescence (viral entry) ([5]; no opioid): 22%
- MOR agonism in Ca2+ mobilization (mouse mu opioid receptor; agonist mode, varying concentrations): No agonism was observed
- IC50 (mouse mu opioid receptor; read-out: Inhibition of DAMGO Induced Ca2+ Mobilization IC50, mMOR-CHO transfected with Gqi5, DAMGO 500 nM, mean ± SEM): 50 ± 2.45 nM
